From paper PMC12736255, “Reinvestigating Pyrrol-2-One-Based Compounds: From Antimicrobial Agents to Promising Antitumor Candidates” (Pharmaceuticals, 2025)

Legend:
Experiment in all cases: NCI-60 single-dose screen
Assay type in all cases: cell-based
[1] = system: CAKI-1; details: Homo sapiens; CAKI-1, 10^–5 M; read-out: GI (%)
From the text: (§1) In the next step, all synthesized compounds were electronically submitted and accepted for testing to the National Cancer Institute (NCI) platform, for the single dose (10^−5 M) screening against a panel of 60 human tumor cell lines, representing leukemia, melanoma, and cancers of the lung, colon, central nervous system, ovary, kidney, prostate, and breast. The results are summarized in Table 2, with the best values highlighted in red (Figures S1–S14).

[2] = system: OVCAR-3; details: Homo sapiens; OVCAR-3, 10^–5 M; read-out: GI (%)
From the text: as §1

[3] = system: HS 578T; details: Homo sapiens, 10^–5 M, read-out: GI (%)
From the text: as §1

[4] = system: OVCAR-5; details: Homo sapiens; OVCAR-5, 10^–5 M; read-out: GI (%)
From the text: as §1

[5] = system: IGROV1; details: Homo sapiens, IGROV-1; IGROV1, 10^–5 M; read-out: GI (%)
From the text: as §1

[6] = system: SK-MEL-5; details: Homo sapiens; SK-MEL-5, 10^–5 M; read-out: GI (%)
From the text: as §1

[7] = system: TK-10; details: Homo sapiens; TK-10, 10^–5 M; read-out: GI (%)
From the text: as §1

[8] = system: SK-MEL-28; details: Homo sapiens; SK-MEL-28, 10^–5 M; read-out: GI (%)
From the text: as §1

[9] = system: NCI-H322M; details: Homo sapiens, 10^–5 M, read-out: GI (%)
From the text: as §1

[10] = system: COLO205; details: Homo sapiens, COLO 205; COLO205, 10^–5 M; read-out: GI (%)
From the text: as §1

[11] = system: OVCAR-4; details: Homo sapiens; OVCAR-4, 10^–5 M; read-out: GI (%)
From the text: as §1

[12] = system: NCI-H522; details: Homo sapiens; NCI-H522, 10^–5 M; read-out: GI (%)
From the text: as §1

[13] = system: KM12; details: Homo sapiens; KM12, 10^–5 M; read-out: GI (%)
From the text: as §1

[14] = system: T-47D; details: Homo sapiens, T47D, 10^–5 M, read-out: GI (%)
From the text: as §1

[15] = system: SK-OV-3; details: Homo sapiens; SK-OV-3, 10^–5 M; read-out: GI (%)
From the text: as §1

[16] = system: M14; details: Homo sapiens; M14, 10^–5 M; read-out: GI (%)
From the text: as §1

[17] = system: DU-145; details: Homo sapiens; DU-145, 10^–5 M; read-out: GI (%)
From the text: as §1

[18] = system: HCT-116; details: Homo sapiens; HCT-116, 10^–5 M; read-out: GI (%)
From the text: as §1

[19] = system: MCF7; details: Homo sapiens; MCF7, 10^–5 M; read-out: GI (%)
From the text: as §1

[20] = system: K-562; details: Homo sapiens, K562; K-562, 10^–5 M; read-out: GI (%)
From the text: as §1

[21] = system: MDA-MB-231/ATCC; details: Homo sapiens, 10^–5 M, read-out: GI (%)
From the text: as §1

[22] = system: A549/ATCC; details: Homo sapiens, 10^–5 M, read-out: GI (%)
From the text: as §1

[23] = system: NCI/ADR-RES; details: Homo sapiens, 10^–5 M, read-out: GI (%)
From the text: as §1

[24] = system: MALME-3M; details: Homo sapiens, 10^–5 M, read-out: GI (%)
From the text: as §1

[25] = system: SR; details: Homo sapiens, 10^–5 M, read-out: GI (%)
From the text: as §1

[26] = system: NCI-H23; details: Homo sapiens; NCI-H23, 10^–5 M; read-out: GI (%)
From the text: as §1

[27] = system: SNB-75; details: Homo sapiens; SNB-75, 10^–5 M; read-out: GI (%)
From the text: as §1

[28] = system: RPMI-8226; details: Homo sapiens; RPMI-8226, 10^–5 M; read-out: GI (%)
From the text: as §1

[29] = system: A498; details: Homo sapiens; A498, 10^–5 M; read-out: GI (%)
From the text: as §1

[30] = system: UACC-257; details: Homo sapiens; UACC-257, 10^–5 M; read-out: GI (%)
From the text: as §1

[31] = system: SNB-19; details: Homo sapiens; SNB-19, 10^–5 M; read-out: GI (%)
From the text: as §1

[32] = system: LOX IMVI; details: Homo sapiens, 10^–5 M, read-out: GI (%)
From the text: as §1

[33] = system: HT-29; details: Homo sapiens; HT-29, 10^–5 M; read-out: GI (%)
From the text: as §1

[34] = system: SN12C; details: Homo sapiens, 10^–5 M, read-out: GI (%)
From the text: as §1

[35] = system: SF-539; details: Homo sapiens; SF-539, 10^–5 M; read-out: GI (%)
From the text: as §1

[36] = system: ACHN; details: Homo sapiens, 10^–5 M, read-out: GI (%)
From the text: as §1

[37] = system: HL-60(TB); details: Homo sapiens, 10^–5 M, read-out: GI (%)
From the text: as §1

[38] = system: PC-3; details: Homo sapiens, PC-3, PC-3, 10^–5 M; read-out: GI (%)
From the text: as §1

[39] = system: MDA-MB-435; details: Homo sapiens; MDA-MB-435, 10^–5 M; read-out: GI (%)
From the text: as §1

O=C1C(Nc2ccc(I)cc2)=CC(c2ccc(O)c(O)c2)N1c1ccc(I)cc1 (stereo not drawn) [3h]
inhibition at 10 µM [1]: 44%
inhibition at 10 µM [2]: 96%
inhibition at 10 µM [3]: 63%
inhibition at 10 µM [4]: 22%
inhibition at 10 µM [5]: 26%
inhibition at 10 µM [6]: 94%
inhibition at 10 µM [7]: 50%
inhibition at 10 µM [8]: 75%
inhibition at 10 µM [9]: 34%
inhibition at 10 µM [10]: 98%
inhibition at 10 µM [11]: 100%
inhibition at 10 µM [12]: 82%
inhibition at 10 µM [13]: 100%
inhibition at 10 µM [14]: 65%
inhibition at 10 µM [15]: 64%
inhibition at 10 µM [16]: 99%
inhibition at 10 µM [17]: 40%
inhibition at 10 µM [18]: 96%
inhibition at 10 µM [19]: 91%
inhibition at 10 µM [20]: 89%
inhibition at 10 µM [21]: 42%
inhibition at 10 µM [22]: 73%
inhibition at 10 µM [23]: 35%
inhibition at 10 µM [24]: 100%
inhibition at 10 µM [25]: 100%
inhibition at 10 µM [26]: 73%
inhibition at 10 µM [27]: 86%
inhibition at 10 µM [28]: 100%
inhibition at 10 µM [29]: 61%
inhibition at 10 µM [30]: 68%
inhibition at 10 µM [31]: 69%
inhibition at 10 µM [32]: 57%
inhibition at 10 µM [33]: 96%
inhibition at 10 µM [34]: 100%
inhibition at 10 µM [35]: 72%
inhibition at 10 µM [36]: 61%
inhibition at 10 µM [37]: 100%
inhibition at 10 µM [38]: > 70%
inhibition at 10 µM [39]: 73%

O=C1C(Nc2ccc(I)cc2)=CC(c2ccccc2)N1c1ccc(I)cc1 (stereo not drawn) [3a]
inhibition at 10 µM [1]: 3%
inhibition at 10 µM [2]: 1%
inhibition at 10 µM [3]: 71%
inhibition at 10 µM [4]: 0%
inhibition at 10 µM [5]: 16%
inhibition at 10 µM [6]: 1%
inhibition at 10 µM [7]: 12%
inhibition at 10 µM [8]: 2%
inhibition at 10 µM [9]: 17%
inhibition at 10 µM [10]: 0%
inhibition at 10 µM [11]: 20%
inhibition at 10 µM [12]: 50%
inhibition at 10 µM [13]: 8%
inhibition at 10 µM [14]: 34%
inhibition at 10 µM [15]: 8%
inhibition at 10 µM [16]: 0%
inhibition at 10 µM [17]: 0%
inhibition at 10 µM [18]: 14%
inhibition at 10 µM [19]: 44%
inhibition at 10 µM [20]: 0%
inhibition at 10 µM [21]: 0%
inhibition at 10 µM [22]: 5%
inhibition at 10 µM [23]: 0%
inhibition at 10 µM [24]: 0%
inhibition at 10 µM [25]: 44%
inhibition at 10 µM [26]: 6%
inhibition at 10 µM [27]: 15%
inhibition at 10 µM [28]: 100%
inhibition at 10 µM [29]: 16%
inhibition at 10 µM [30]: 13%
inhibition at 10 µM [31]: 8%
inhibition at 10 µM [32]: 18%
inhibition at 10 µM [33]: 0%
inhibition at 10 µM [34]: 23%
inhibition at 10 µM [35]: 12%
inhibition at 10 µM [36]: 13%
inhibition at 10 µM [37]: 0%
inhibition at 10 µM [38]: 0%
inhibition at 10 µM [39]: 0%

O=C1C(Nc2ccc(I)cc2)=CC(c2cc(C(F)(F)F)cc(C(F)(F)F)c2)N1c1ccc(I)cc1 (stereo not drawn) [3f]
inhibition at 10 µM [1]: 32%
inhibition at 10 µM [2]: 35%
inhibition at 10 µM [3]: 100%
inhibition at 10 µM [4]: 9%
inhibition at 10 µM [5]: 0%
inhibition at 10 µM [6]: 12%
inhibition at 10 µM [7]: 57%
inhibition at 10 µM [8]: 9%
inhibition at 10 µM [9]: 10%
inhibition at 10 µM [10]: 59%
inhibition at 10 µM [11]: 69%
inhibition at 10 µM [12]: 34%
inhibition at 10 µM [13]: 13%
inhibition at 10 µM [14]: 100%
inhibition at 10 µM [15]: 10%
inhibition at 10 µM [16]: 0%
inhibition at 10 µM [17]: 5%
inhibition at 10 µM [18]: 43%
inhibition at 10 µM [19]: 46%
inhibition at 10 µM [20]: 26%
inhibition at 10 µM [21]: 42%
inhibition at 10 µM [22]: 16%
inhibition at 10 µM [23]: 7%
inhibition at 10 µM [24]: 0%
inhibition at 10 µM [25]: 47%
inhibition at 10 µM [26]: 12%
inhibition at 10 µM [27]: 100%
inhibition at 10 µM [28]: 43%
inhibition at 10 µM [29]: 90%
inhibition at 10 µM [30]: 0%
inhibition at 10 µM [31]: 19%
inhibition at 10 µM [32]: 17%
inhibition at 10 µM [33]: 5%
inhibition at 10 µM [34]: 61%
inhibition at 10 µM [35]: 17%
inhibition at 10 µM [36]: 49%
inhibition at 10 µM [37]: 59%
inhibition at 10 µM [38]: 25%
inhibition at 10 µM [39]: 0%

O=C1C(Nc2ccc(I)cc2)=CC(c2ccc(C(F)(F)F)cc2)N1c1ccc(I)cc1 (stereo not drawn) [3e]
inhibition at 10 µM [1]: 91%
inhibition at 10 µM [2]: 72%
inhibition at 10 µM [3]: 100%
inhibition at 10 µM [4]: 18%
inhibition at 10 µM [5]: 12%
inhibition at 10 µM [6]: 0%
inhibition at 10 µM [7]: 100%
inhibition at 10 µM [8]: 31%
inhibition at 10 µM [9]: 97%
inhibition at 10 µM [10]: 61%
inhibition at 10 µM [11]: 100%
inhibition at 10 µM [12]: 53%
inhibition at 10 µM [13]: 35%
inhibition at 10 µM [14]: 100%
inhibition at 10 µM [15]: 50%
inhibition at 10 µM [16]: 64%
inhibition at 10 µM [17]: 28%
inhibition at 10 µM [18]: 58%
inhibition at 10 µM [19]: 44%
inhibition at 10 µM [20]: 16%
inhibition at 10 µM [21]: 62%
inhibition at 10 µM [22]: 30%
inhibition at 10 µM [23]: 35%
inhibition at 10 µM [24]: 78%
inhibition at 10 µM [25]: 99%
inhibition at 10 µM [26]: 11%
inhibition at 10 µM [27]: 100%
inhibition at 10 µM [28]: 60%
inhibition at 10 µM [29]: 100%
inhibition at 10 µM [30]: 100%
inhibition at 10 µM [31]: 71%
inhibition at 10 µM [32]: 7%
inhibition at 10 µM [33]: 32%
inhibition at 10 µM [34]: 60%
inhibition at 10 µM [35]: 37%
inhibition at 10 µM [36]: 100%
inhibition at 10 µM [37]: 51%
inhibition at 10 µM [38]: 26%
inhibition at 10 µM [39]: 0%
